Where “and” joins values, the source holds several entries; their conditions need not be identical. Equal values may be shown once.

The values below come from the Deep4Chem optical property database.

This data set can be described thus: solvent given as SMILES.

In the case of `Cc1ccc(-c2cc(-c3ccccc3)c3c(N)nc(N4CCCC4)c(C#N)c3n2)cc1`, the emission maximum by setting is: (in CC#N) 528 nm; (in CC(C)=O) 524 nm; (in CC(C)O) 518 nm; (in CO) 527 nm; (in ClC(Cl)Cl) 510 nm; (in ClCCl) 517 nm. Under “in c1ccccc1”, this molecule came in with an emission maximum of 504 nm.
With `Fc1ccc(N(c2ccccc2)c2ccc3ccc4c(N(c5ccccc5)c5ccc(F)cc5)ccc5ccc2c3c54)cc1`, the emission maximum (in ClCCl) was determined as 470 nm.
Turning to `CC(=O)c1ccc(C#Cc2ccc3c(N(C)C)cc(-c4ccccc4)cc3c2)cc1`, where the note is “in ClCCl”, the emission maximum stood at 577 nm.
In the case of `Cc1cc(C)c2nc3c(=O)[nH]c(=O)[nH]c3nc2c1`, the emission maximum (in CC#N) was 461 nm.
With `CC1(C)c2ccccc2N(c2ccccc2)c2ccc(-c3ccc(C(=O)c4ccc(-c5ccc6c(c5)C(C)(C)c5ccccc5N6c5ccccc5)cc4)cc3)cc21`, the emission maximum worked out at 449.72 nm (in Cc1ccccc1) and 475 nm (in O=P(c1ccccc1)(c1ccccc1)c1ccccc1Oc1ccccc1P(=O)(c1ccccc1)c1ccccc1).
As to `O=S1(=O)c2ccccc2-c2c1c1ccccc1p2-c1ccccc1` (centres undefined), the emission maximum came out at 436 nm (in C1CCCCC1), 453 nm (in CC#N), 464 nm (in CCO) and 453 nm (in ClCCl).
Regarding `CCN(CC)c1ccc2cc(-c3nc4ccccc4s3)c(=O)oc2c1`, the emission maximum reads like this: (in C1CCCCC1) 462 nm; (in CC1CCCCC1) 462 nm; (in CC#N) 501 nm and 506.6 nm; (in CCC(C)CC) 461.6 nm; (in CCCCCC) 463 nm; (in CCO) 505 nm. For the same molecule, the emission maximum (in CCOC(C)=O) amounted to 492.8 nm.
The molecule `F[B-]1(F)OC(/C=C/c2ccccc2)=CC(c2ccccc2)=[O+]1` yielded an emission maximum (in ClCCl) of 443 nm.
Consider `CC1=C(c2cccs2)C(C)=[N+]2C1=C(c1ccc(OS(=O)(=O)c3ccc([N+](=O)[O-])cc3[N+](=O)[O-])cc1)c1c(C)c(-c3cccs3)c(C)n1[B-]2(F)F`, for which the emission maximum is recorded as 609 nm (in CO), 608 nm (in Cc1ccccc1) and 607 nm (in ClCCl).
For `Cc1c2ccncc2c(C)c2c1[nH]c1ccccc12`, the emission maximum reads like this: (in C1CCCCC1) 392 nm; (in C1CCOC1) 413 nm; (in C1COCCO1) 410 nm; (in CC#N) 420 nm; (in CC(C)(C)O) 420 nm; (in CC(C)O) 424 nm. In addition, the emission maximum was 419 nm (in CCC(C)(C)O); 390 nm (in CCCCCC); 427 nm (in CCCCO); 429 nm (in CCO); 410 nm (in CCOC(C)=O); 405 nm (in CCOCC). In addition, the emission maximum is 425 nm (in CN(C)C=O), 434 nm (in CO), 428 nm (in CS(C)=O) and 403 nm (in Cc1ccccc1).
`O=c1oc2ccc3cccc4c(O)c(Cl)c(c1Cl)c2c34` had an emission maximum (in CC1CCCO1) of 500 nm.
For `CCCCCCc1ccsc1-c1cc2c3cc(-c4sccc4CCCCCC)c4nc(C(F)(F)C(F)(F)C(F)(F)F)nc5c(-c6sccc6CCCCCC)cc(c6cc(-c7sccc7CCCCCC)c7nc(C(F)(F)C(F)(F)C(F)(F)F)nc1c7c26)c3c45`, the emission maximum (in C1CCOC1) came to 627 nm.
With `c1ccc2nc3cccc(-c4ccc(-n5c6ccccc6c6ccccc65)cc4)c3cc2c1`, the emission maximum runs as follows: (in C1CCOC1) 466 nm; (in CC#N) 527 nm; (in CC(C)=O) 497 nm; (in CC(C)OC(C)C) 444 nm; (in CCCCCC) 434 nm; (in CCCCOCCCC) 442 nm. The emission maximum is listed as 460 nm (in CCOC(C)=O), 443 nm (in CCOCC) and 486 nm (in ClCCl).
